According to patent US9604987B2, “Synthesis of autophagy inducing compound and the uses thereof” (Hong Kong Baptist University, priority 2012, dated 2017):

What was measured:
SH-SY5Y cells = experiment: Western blot of autophagy marker LC3-II in SH-SY5Y cells; assay type: cell-based, human; settings: 0-25 μM, 24 hours
Method: Native and denatured PAGE and Western blotting analysis. Samples to be run under denaturing conditions were lysed with RIPA lysis buffer (150 mM NaCl, 50 mM Tris-HCl, 0.35% sodium deoxycholate, 1 mM EDTA, 1% NP40, 1 mM PMSF, 5 μg/ml aprotinin, 5 μg/ml leupeptin). Samples for native gels were lysed with detergent-free lysis buffer (50 mM Tris/HCl pH 7.4, 175 mM NaCl, 5 mM EDTA pH 8.0, 1 mM PMSF, 5 μg/ml aprotinin, 5 μg/ml leupeptin), and sheared 5 times through a 28-gauge needle followed by 2 times of sonication for 5 seconds according to previously described protocol. For denaturing, SDS-PAGE was performed using Tris-Glycine SDS running buffer and SDS sample buffer, and for native conditions, native-PAGE was run with detergent-free Tris-Glycine running buffer (BN2007, Invitrogen) and 4× native sample buffer (BN2003, Invitrogen) on a pre-casted native PAGE gel (BN1002BOX, Invitrogen). The proteins on the gels were then transferred to PVDF membrane (RPN303F, GE Healthcare) and processed for immunoblotting. Membranes were blocked with 5% non-fat milk and probed with the appropriate primary and secondary antibodies. The desired bands were visualized using the ECL kit (32106, Pierce). The band density was quantified using the ImageJ program and normalized to that of the control group. […]

[1] = tested on: mouse primary cortical neurons; experiment: Autophagy in primary mouse cortical neurons (LC3-II blot, GFP-LC3 puncta); assay type: cell-based, E17 embryonic ICR mice; settings: 24 hours
Method: Primary neuron culture. The E17 embryonic pup brains were dissected and cortices were placed in a Petri dish containing ice cold EBSS, with meninges carefully removed. Tissues were digested in 5 ml of digestion solution (EBSS containing 0.5 mM EDTA (E6758, Sigma), 0.5 mg/ml Papain (3120, Worthington Biochem) and 4 mg/ml L-Cysteine (C7880, Sigma)) at 37° C. for 15 minutes. The tissue was sucked out in 1 ml of digestion solution and mixed with 3 ml of digestion inhibition solution (EBSS containing 5 mg/ml BSA (A2153, Sigma), 5 mg/ml Trypsin inhibitor (T9253, Sigma) and 10 μg/ml DNase (DN25, Sigma)). The mixed tissue solution was thoroughly mixed to dissociate the cells and then transferred to a 50 ml tube through a 70 μm filter. The cells were collected by centrifugation and re-suspended in seeding medium (DMEM containing 10% FBS and 10% horse serum). […]
To further confirm the pro-autophagic effect of Cory B on primary neurons, mouse primary cortical neurons isolated from E17 embryonic ICR mice are used in this study. […] Neurons are fixed in 4% paraformaldehyde and analyzed under a confocal microscope. GFP-LC3 puncta number in each GFP positive neuron is counted and at least 20 neurons in each group is counted. […]

[2] = tested on: L3 Drosophila larvae fat body; experiment: LysoTracker Red staining of Drosophila L3 larvae fat body; assay type: in vivo
Method: Drosophila culture and drug feeding. Flies were raised at 25° C. on standard corn meal medium supplemented with dry yeast. Cory B and rapamycin were initially dissolved in DMSO then diluted in water to desired concentrations. The drug containing water was added into instant Drosophila food and mixed thoroughly. As the control, the same amount of DMSO was also mixed with instant Drosophila food. For the treatment, L3 larvae or adult flies were transferred to the drug-containing medium and incubated for indicated time.
Lysotracker staining and quantitative analysis of autophagic structures. L3 larvae were dissected using fine forceps under a dissecting microscope and inverted so that fat bodies were exposed to the incubating solution. The larvae carcasses were stained with 100 nM of LysoTracker red in PBS for 5 minutes at room temperature. After the incubation, the larvae carcasses were rinsed once in PBS and transferred to a glass slide with a drop of mounting medium on it. […] Fat body lobes were then covered with a cover slide and immediately observed under a standard fluorescence microscope. Quantitative analysis of lysotracker-positive spots was performed according to previous described protocol with minor revision. […] The numbers of lysotracker-positive spots were quantified from at least 20 randomly selected fluorescent image fields (4700 μm^2/field). […]

[3] = tested on: α-syn/synphilin-1 aggresomes in N2a cells; experiment: α-syn/synphilin-1 aggresome formation in N2a cells; assay type: cell-based, mouse; settings: 25 μM, 48 hours
Method: α-syn and synphilin-1 are co-expressed in N2a cells to mimic aggresome formation and are treated with 25 μM Cory B or 5 mM 3-MA for 48 hours. Cells are fixed in 4% paraformaldehyde and analyzed under a fluorescence microscope. […] The inhibition of Cory B clearance of various forms of α-syn and α-syn/synphilin-1 aggresomes in the presence of 3-MA further validates that such clearance is via the autophagy pathway. Data are presented as the mean±SEM from 3 independent experiments (***p<0.001, one-way ANOVA for multiple comparison and Tukey's test as post hoc test).

CC[C@@H]1CN2CC[C@]3(C(=O)Nc4ccccc43)C2C[C@@H]1C(=COC)C(=O)OC (stereo partly drawn) [Cory B, Corynoxine B]
LC3-II levels (SH-SY5Y cells): increases levels of LC3-II
LC3-II level ([1]; 0-50 μM): dose-dependent increase of LC3-II
GFP puncta in neurons transfected with GFP-LC3 construct ([1]; 50 μM): induces massive formation of GFP puncta
LysoTracker Red-positive puncta in fat bodies ([2]; fed 0.2 mg/ml, 6 hours): induces formation of LysoTracker Red-positive puncta
LysoTracker Red puncta formation in presence of 3-MA ([2]; with autophagy inhibitor 3-MA): blocked
number of α-syn/synphilin-1 aggresomes [3]: dramatically decreases the number of α-syn/synphilin-1 aggresomes
